“Also recorded” adds a separate entry of the source.
Experiments:
[1] = test system: human dermal fibroblasts; test: in vitro collagen synthesis assay using human dermal fibroblasts; assay type: cell-based
Protocol: Without serotonin (5-HT) supplementation, the majority of selected compounds maintained fibroblastic collagen synthesis.
(§1) High throughput screening (HTS) of well-defined chemical compounds was performed using Npas2-LacZ reporter mouse skin fibroblasts. Chemical genomics analysis of hit compounds indicated the involvement of monoamine-related pathways for regulating Npas2 expression. To identify the regulatory mechanism of Npas2 in human dermal fibroblasts, a library of lentivirus expression vectors containing human monoamine-related genes was selected for over-expression study.

[2] = test system: Npas2; test: Npas2 expression in human dermal fibroblasts; assay type: cell-based; settings: serotonin supplementation; FIG. 9F
Protocol: FIGS. 9A-9G show the effect of HTR1B and HTR2B on human dermal fibroblasts.
as §1

[3] = test system: mouse splinted skin wound; test: mouse excisional splinted skin wound healing model, topical application; assay type: in vivo; settings: daily topical application at 5 micromolar in 10% DMSO vehicle; FIG. 5
Description: FIGS. 1A-1B show wound healing in mouse excisional skin wound splinting model, wherein a splinting ring is tightly adhered to the skin around the wound, thereby preventing local skin contraction. The wound is thus healed through a process of granulation and re-epithelialization similar to that occurring in human. The figures present a time course healing of skin splinted wound in wild type (WT) (FIG. 1A) and Npas2 KO mice (FIG. 1B).
Skin of experimental animals such as mice are similarly composed of multiple tissues; however excisional wound heals faster in part due to active wound contraction. Therefore, mouse wound healing model employs a silicone stent around the excisional skin, which prevents contraction allowing the healing through re-epithelialization and granulation tissue formation. The mouse splinted skin wound model has provided a common experimental platform, which allows investigation of critical molecules for skin wound healing using genetically manipulated mice. Knockout mutation of wound inflammation related molecules such as Sphingosine kinase-1 or mast cell proteases was reported to delay the wound closure and the proliferative phase of healing, respectively.
High throughput screening (HTS) of well-defined chemical compounds was performed using Npas2-LacZ reporter mouse skin fibroblasts. […]

[4] = test system: human periodontal ligament MSC (PDLSC); test: in vitro osteogenic differentiation assay using human periodontal ligament stem cells (PDLSC); assay type: cell-based; settings: supplementation of compound; FIG. 8

Compound	in vitro collagen synthesis of human dermal fibroblasts ([1]; serotonin supplementation, FIG. 9E)	Npas2 expression of human dermal fibroblasts [2]	fibroblastic collagen synthesis ([1]; in the presence of 10 μM 5-HT supplementation, FIG. 4)	wound closure and skin tissue regeneration [3]	osteogenic differentiation of PDLSC [4]
NCCc1c[nH]c2ccc(O)cc12 [serotonin]	decreased	increased			
N#Cc1cc(CN2CCC(Nc3ncnc4sc(Cl)cc34)CC2)ccc1F [PRX-08066, 5-[[4-[(6-chlorothieno[2,3-d]pyrimidin-4-yl)amino]piperidin-1-yl]methyl]-2-fluorobenzonitrile]			high level of collagen synthesis	significant wound closure and skin tissue regeneration	effective compound; also recorded: enhanced the differentiation of PDLSC
CN1CCC(=C2c3ccccc3C=Cc3ccccc32)CC1 [Cyproheptadine, 1-methyl-4-(2-tricyclo[9.4.0.03,8]pentadeca-1(15),3,5,7,9,11,13-heptaenylidene)piperidine]				significant wound closure and skin tissue regeneration	
